Results reported in PubChem BioAssay AID248 (DTP/NCI, 2004).
Where “and” joins values, the source holds several entries; their conditions need not be identical. Equal entries are not always repeated. Inconclusive results and toxic doses are left out. Cut-off read from the data, not from the text of the source: active = T/C of 150% or more; inactive = T/C below 125%.

Tested on: L1210 leukemia ip in BDF1 mice, survival T/C
Test: NCI In Vivo Anticancer Drug Screen. Data for tumor model L1210 Leukemia (intraperitoneal) in B6D2F1 (BDF1) mice
Conditions: endpoint: mean survival time, higher = longer survival
Summary of the method: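 In this screen, tumor-bearing mice given compound are compared to those given vehicle, and their survival values are reported as a treated-to-control quotient.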

[1] = dose: 100.0 mg/kg/injection, schedule: Q01DX009 (ip), vehicle: Klucel (hydroxypropylcellulose) (HPC)
[2] = dose: 200.0 mg/kg/injection, schedule: Q01DX009 (ip), vehicle: Klucel (hydroxypropylcellulose) (HPC)
[3] = dose: 100.0 mg/kg/injection, schedule: Q04DX003 (ip), vehicle: saline with Tween-80
[4] = dose: 200.0 mg/kg/injection, schedule: Q04DX003 (ip), vehicle: saline with Tween-80
[5] = dose: 400.0 mg/kg/injection, schedule: Q04DX003 (ip), vehicle: saline with Tween-80
[6] = dose: 100.0 mg/kg/injection, schedule: Q04DX003 (ip), vehicle: Klucel (hydroxypropylcellulose) (HPC)
[7] = dose: 200.0 mg/kg/injection, schedule: Q04DX003 (ip), vehicle: Klucel (hydroxypropylcellulose) (HPC)
[8] = dose: 400.0 mg/kg/injection, schedule: Q04DX003 (ip), vehicle: Klucel (hydroxypropylcellulose) (HPC)
[9] = dose: 400.0 mg/kg/injection, schedule: Q01DX009 (ip), vehicle: Klucel (hydroxypropylcellulose) (HPC)
[10] = dose: 100.0 mg/kg/injection, schedule: Q04DX002 (ip), vehicle: Klucel (hydroxypropylcellulose) (HPC)
[11] = dose: 200.0 mg/kg/injection, schedule: Q04DX002 (ip), vehicle: Klucel (hydroxypropylcellulose) (HPC)
[12] = dose: 400.0 mg/kg/injection, schedule: Q04DX002 (ip), vehicle: Klucel (hydroxypropylcellulose) (HPC)
[13] = dose: 100.0 mg/kg/injection, schedule: Q01DX001 (ip), vehicle: carboxymethylcellulose (CMC)

Measured: T/C

CN(C(=O)Nc1ccccc1F)C1CCCCC1
inactive: dose: 50.0 mg/kg/injection, schedule: Q01DX009 (ip), vehicle: Klucel (hydroxypropylcellulose) (HPC) 101 % of control | [1] 90 % of control | [2] 96 % of control

COc1ccccc1C1N(C)CCCN1C
inactive: dose: 6.25 mg/kg/injection, schedule: Q04DX003 (ip), vehicle: saline 96 % of control | dose: 12.5 mg/kg/injection, schedule: Q04DX003 (ip), vehicle: saline 92 % of control | dose: 25.0 mg/kg/injection, schedule: Q04DX003 (ip), vehicle: saline 101 % of control

C=C1Sc2ccccc2N1C
inactive: dose: 6.25 mg/kg/injection, schedule: Q01DX015 (ip), vehicle: saline 97 % of control | dose: 12.5 mg/kg/injection, schedule: Q01DX015 (ip), vehicle: saline 97 % of control | dose: 25.0 mg/kg/injection, schedule: Q01DX015 (ip), vehicle: saline 95 % of control | dose: 50.0 mg/kg/injection, schedule: Q01DX015 (ip), vehicle: saline 91 % of control

CCOC(c1ccccc1)(c1ccccc1)c1ccccc1
inactive: [3] 101 % of control | [4] 90 % of control | [5] 91 % of control

CC1CC(C)CC(NC(=O)NCCCl)C1 (stereo not given)
inactive: dose: 20.0 mg/kg/injection, schedule: Q01DX009 (ip), vehicle: Klucel (hydroxypropylcellulose) (HPC) 106 % of control | dose: 40.0 mg/kg/injection, schedule: Q01DX009 (ip), vehicle: Klucel (hydroxypropylcellulose) (HPC) 95 % of control | dose: 80.0 mg/kg/injection, schedule: Q01DX009 (ip), vehicle: Klucel (hydroxypropylcellulose) (HPC) 93 % of control | [6] 103 % of control | [2] 87 % of control | [7] 94 % of control | [8] 92 % of control

CCNC(=O)N1CC2CCC(C1)N2C
inactive: dose: 100.0 mg/kg/injection, schedule: Q04DX003 (ip), vehicle: saline 113 % of control | dose: 200.0 mg/kg/injection, schedule: Q04DX003 (ip), vehicle: saline 106 % of control | dose: 400.0 mg/kg/injection, schedule: Q04DX003 (ip), vehicle: saline 98 % of control

COc1ccc(N=Nc2cc(C)c(C)cc2O)cc1
inactive: [1] 96 % of control | [2] 103 % of control | [9] 94 % of control

CS(=O)(=O)O/C=C1\C(=O)OC2CCCCC12 (stereo not given)
inactive: dose: 12.5 mg/kg/injection, schedule: Q01DX009 (ip), vehicle: water 111 % of control | dose: 25.0 mg/kg/injection, schedule: Q01DX009 (ip), vehicle: water 105 % of control | dose: 50.0 mg/kg/injection, schedule: Q01DX009 (ip), vehicle: water 100 % of control | dose: 100.0 mg/kg/injection, schedule: Q01DX009 (ip), vehicle: water 105 % of control | dose: 200.0 mg/kg/injection, schedule: Q01DX009 (ip), vehicle: water 106 % of control

CCCCN=C(NCCCC)OCCCC
inactive: dose: 11.1 mg/kg/injection, schedule: Q01DX Z (ip), vehicle: saline 104 % of control | dose: 16.6 mg/kg/injection, schedule: Q01DX Z (ip), vehicle: saline 100 % of control

COC1(OC)C2CCC1C(OS(=O)(=O)c1ccc(C)cc1)C2 (stereo not given)
inactive: [10] 103 % of control | [11] 106 % of control | [12] 100 % of control

CCCCCCCCN(NC(=O)c1ccccc1)S(=O)(=O)c1ccccc1
inactive: dose: 25.0 mg/kg/injection, schedule: Q01DX001 (ip), vehicle: carboxymethylcellulose (CMC) 100 % of control | dose: 25.0 mg/kg/injection, schedule: Q04DX003 (ip), vehicle: carboxymethylcellulose (CMC) 96 % of control | dose: 50.0 mg/kg/injection, schedule: Q01DX001 (ip), vehicle: carboxymethylcellulose (CMC) 100 % of control | dose: 50.0 mg/kg/injection, schedule: Q01DX009 (ip), vehicle: carboxymethylcellulose (CMC) 97 % of control and 89 % of control | dose: 50.0 mg/kg/injection, schedule: Q04DX002 (ip), vehicle: carboxymethylcellulose (CMC) 100 % of control and 107 % of control | dose: 50.0 mg/kg/injection, schedule: Q04DX003 (ip), vehicle: carboxymethylcellulose (CMC) 96 % of control | [13] 98 % of control | dose: 100.0 mg/kg/injection, schedule: Q01DX009 (ip), vehicle: carboxymethylcellulose (CMC) 100 % of control and 105 % of control | dose: 100.0 mg/kg/injection, schedule: Q04DX002 (ip), vehicle: carboxymethylcellulose (CMC) 100 % of control and 101 % of control | dose: 200.0 mg/kg/injection, schedule: Q04DX002 (ip), vehicle: carboxymethylcellulose (CMC) 102 % of control and 103 % of control

CCOc1cc(-c2nc(-c3ccc(N=Cc4ccc(N(CCCOS(C)(=O)=O)CCCOS(C)(=O)=O)cc4C)cc3)cs2)ccc1OCc1ccccc1
inactive: [3] 91 % of control | [4] 86 % of control | [5] 89 % of control

CCOC(=O)C(CSCSC)NC(=O)/C=C/c1cccnc1 (stereo not given)
inactive: dose: 100.0 mg/kg/injection, schedule: Q01DX009 (ip), vehicle: saline with Tween-80 101 % of control | [3] 93 % of control | dose: 200.0 mg/kg/injection, schedule: Q01DX009 (ip), vehicle: saline with Tween-80 98 % of control | [4] 97 % of control | dose: 400.0 mg/kg/injection, schedule: Q01DX009 (ip), vehicle: saline with Tween-80 90 % of control | [5] 90 % of control

Cc1ccc2oc(=O)cc(C)c2c1
inactive: [13] 91 % of control | dose: 200.0 mg/kg/injection, schedule: Q01DX001 (ip), vehicle: carboxymethylcellulose (CMC) 96 % of control | dose: 400.0 mg/kg/injection, schedule: Q01DX001 (ip), vehicle: carboxymethylcellulose (CMC) 93 % of control

O=S(=O)(c1ccccc1)N1C=CC=CC=C1
inactive: dose: 25.0 mg/kg/injection, schedule: Q04DX002 (ip), vehicle: Klucel (hydroxypropylcellulose) (HPC) 102 % of control | dose: 50.0 mg/kg/injection, schedule: Q04DX002 (ip), vehicle: Klucel (hydroxypropylcellulose) (HPC) 102 % of control | [10] 105 % of control

O=C(Nc1ccc(Cl)c(Cl)c1)Nc1cccc2nsnc12
inactive: [1] 92 % of control | [2] 92 % of control | [9] 92 % of control

Cc1ccc(S(=O)(=O)NC(CCl)=NCc2ccccc2)cc1
inactive: [10] 96 % of control | [11] 100 % of control | [12] 114 % of control

Brc1ccc(S/C=C/c2ccccc2)cc1
inactive: dose: 100.0 mg/kg/injection, schedule: Q01DX001 (ip), vehicle: saline 112 % of control | dose: 200.0 mg/kg/injection, schedule: Q01DX001 (ip), vehicle: saline 102 % of control | dose: 400.0 mg/kg/injection, schedule: Q01DX001 (ip), vehicle: saline 101 % of control

COc1ccc(Nc2cc(=O)[nH]c(N)n2)cc1
inactive: dose: 100.0 mg/kg/injection, schedule: Q01DX Z (ip), vehicle: methylcellulose (MC) 112 % of control | dose: 200.0 mg/kg/injection, schedule: Q01DX Z (ip), vehicle: methylcellulose (MC) 108 % of control

Fc1cnc(OC23CC4CC(CC(C4)C2)C3)nc1OC12CC3CC(CC(C3)C1)C2
inactive: [6] 86 % of control | [7] 88 % of control | [8] 88 % of control

c1ccc(N=C(Nc2ccccc2)c2ccccc2)cc1
inactive: [10] 103 % of control | [3] 94 % of control | [11] 111 % of control | [4] 91 % of control | [5] 92 % of control
